Laboratory results reported in the supplement of paper PMC5752671.

Columns and labels:
[1] = system: SKM1; experiment: area under dose-response curve (cell viability) (AUC (arbitrary, % viability x log concentration)); higher = less sensitive (more viable); conditions: 4 days
Experimental: (§1)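 14 AML cell lines were plated on extracellular-matrix-coated 384-well plates and exposed to each drug at 8 concentrations (4-5 logs within 1e-12 to 1e-4 M, tailored per drug) in duplicate. Viability was read by CellTiter-Glo after 4 days. The dose-response (averaged over duplicates) was fitted to a 4-parameter sigmoid, and the area under the curve was taken as the sensitivity measure.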

[2] = system: OCI-AML3; experiment: as above; conditions: 4 days
Experimental: as §1

[3] = system: MOLM/16; experiment: as above; conditions: 4 days
Experimental: as §1

[4] = system: PL-21; experiment: as above; conditions: 4 days
Experimental: as §1

[5] = system: SKM1; experiment: IC50 (cell viability) (log10 M); conditions: 4 days
Experimental: (§2)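 14 AML cell lines were treated with 8 drug concentrations in duplicate on ECM-coated 384-well plates, with CellTiter-Glo viability read after 4 days. IC50 is the concentration where the fitted 4-parameter curve crosses 50% viability. For inactive compounds the maximum tested concentration is used as a placeholder.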

[6] = system: NB4; experiment: IC50 (cell viability) (log10 M); conditions: 4 days
Experimental: as §2

[7] = system: MOLM/13; experiment: IC50 (cell viability) (log10 M); conditions: 4 days
Experimental: as §2

[8] = system: EOL-1; experiment: IC50 (cell viability) (log10 M); conditions: 4 days
Experimental: as §2

[9] = system: KG1; experiment: IC50 (cell viability) (log10 M); conditions: 4 days
Experimental: as §2

[10] = system: OCI-AML3; experiment: IC50 (cell viability) (log10 M); conditions: 4 days
Experimental: as §2

[11] = system: MV4.11; experiment: IC50 (cell viability) (log10 M); conditions: 4 days
Experimental: as §2

[12] = system: U937; experiment: IC50 (cell viability) (log10 M); conditions: 4 days
Experimental: as §2

[13] = system: THP-1; experiment: IC50 (cell viability) (log10 M); conditions: 4 days
Experimental: as §2

[14] = system: MOLM/16; experiment: IC50 (cell viability) (log10 M); conditions: 4 days
Experimental: as §2

[15] = system: HL60; experiment: IC50 (cell viability) (log10 M); conditions: 4 days
Experimental: as §2

[16] = system: KASUMI1; experiment: IC50 (cell viability) (log10 M); conditions: 4 days
Experimental: as §2

[17] = system: PL-21; experiment: IC50 (cell viability) (log10 M); conditions: 4 days
Experimental: as §2

[18] = system: OCI-AML2; experiment: IC50 (cell viability) (log10 M); conditions: 4 days
Experimental: as §2

[19] = system: AML.017 (primary AML patient cells); experiment: area under dose-response curve (cell viability), primary AML patient cells (AUC (arbitrary, % viability x log concentration; ComBat batch-corrected)); higher = less sensitive (more viable); conditions: 4 days; sample type: primary AML patient cells
Outline: (§3)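 Cryopreserved primary AML cells were thawed with DNase, cultured 48 h in IMDM with horse serum, fetal calf serum and low stem cell factor, then blast-enriched. They were plated at 5000 cells/well on extracellular-matrix-coated 384-well plates, with drugs added next day at eight concentrations within 10^–12–10^–4 M, in duplicate. CellTiter-Glo viability was read after 4 days. Area under fitted four-parameter curves was ComBat batch-corrected.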

[20] = system: AML.076 (primary AML patient cells); experiment: as above; conditions: 4 days; sample type: primary AML patient cells
Outline: as §3

Row | Structure (SMILES) | area under dose-response curve [1] | area under dose-response curve [2] | area under dose-response curve [3] | area under dose-response curve [4] | IC50 (log10 M) [5] | IC50 (log10 M) [6] | IC50 (log10 M) [7] | IC50 (log10 M) [8] | IC50 (log10 M) [9] | IC50 (log10 M) [10] | IC50 (log10 M) [11] | IC50 (log10 M) [12] | IC50 (log10 M) [13] | IC50 (log10 M) [14] | IC50 (log10 M) [15] | IC50 (log10 M) [16] | IC50 (log10 M) [17] | IC50 (log10 M) [18] | area under dose-response curve [19] | area under dose-response curve [20]
1 | CO[C@@H]1[C@H](N(C)C(=O)c2ccccc2)C[C@H]2O[C@]1(C)n1c3ccccc3c3c4c(c5c6ccccc6n2c5c31)C(=O)NC4 [PKC412] | 555 | 560 | 425 | 524 | -5.89 | -6.19 | -7.53 | -8.49 | -6.75 | -6.09 | -8.13 | -6.8 | -5.66 | -6.92 | -5.63 | -6.37 | -5.83 | -6.66 | 594 | 574
2 | CCCS(=O)(=O)Nc1ccc(F)c(C(=O)c2c[nH]c3ncc(-c4ccc(Cl)cc4)cc23)c1F [PLX-4032] | 661 | 751 | 661 | 638 | > -5 | > -5 | > -5 | > -5 | > -5 | > -5 | > -5 | > -5 | > -5 | > -5 | > -5 | -5.02 | > -5 | -5.27 | 686 | 665
3 | CCCS(=O)(=O)Nc1ccc(F)c(C(=O)c2c[nH]c3ncc(Cl)cc23)c1F [PLX-4720] | 597 | 763 | 606 | 616 | -5.33 | > -5 | > -5 | -5.41 | > -5 | > -5 | > -5 | > -5 | > -5 | -5.42 | > -5 | > -5 | > -5 | > -5 | 732 | 682
4 | CC(=O)O[C@H]1C(=O)[C@@]2(C)[C@H]([C@H](OC(=O)c3ccccc3)[C@]3(O)C[C@H](OC(=O)[C@H](O)[C@@H](NC(=O)c4ccccc4)c4ccccc4)C(C)=C1C3(C)C)[C@]1(OC(C)=O)CO[C@@H]1C[C@@H]2O [Paclitaxel] | 99.8 | 133 | 18.5 | 5.02 | < -8.48 | < -8.48 | < -8.48 | < -8.48 | < -8.48 | < -8.48 | < -8.48 | < -8.48 | < -8.48 | < -8.48 | < -8.48 | < -8.48 | < -8.48 | < -8.48 | 630 | 455
5 | Cc1[nH]c2ccccc2c1CCNCc1ccc(/C=C/C(=O)NO)cc1 [Panobinostat] | 318 | 310 | 242 | 319 | -8.46 | -8.35 | -8.24 | -8.74 | -8.44 | -8.2 | -8.66 | -8.39 | -8.44 | -8.71 | -8.45 | -8.48 | -8.44 | -8.5 | 269 | 246
6 | Cc1ccc(Nc2nccc(N(C)c3ccc4c(C)n(C)nc4c3)n2)cc1S(N)(=O)=O [Pazopanib] | 642 | 615 | 644 | 562 | > -5 | > -5 | > -5 | -5.46 | > -5 | > -5 | > -5 | > -5 | > -5 | > -5 | > -5 | > -5 | > -5 | > -5 | 675 | 659
7 | Nc1nc2[nH]cc(CCc3ccc(C(=O)N[C@@H](CCC(=O)O)C(=O)O)cc3)c2c(=O)[nH]1 [Pemetrexed] | 654 | 641 | 624 | 618 | > -5 | > -5 | > -5 | > -5 | > -5 | > -5 | > -5 | > -5 | > -5 | > -5 | > -5 | > -5 | > -5 | > -5 | 782 | 678
8 | OC[C@H]1O[C@@H](n2cnc3c2N=CNC[C@H]3O)C[C@@H]1O [Pentostatin] | 637 | 625 | 627 | 616 | > -5 | > -5 | > -5 | > -5 | > -5 | > -5 | > -5 | > -5 | > -5 | > -5 | > -5 | > -5 | > -5 | > -5 | 698 | 659
9 | CC[C@H](C)C(=O)O[C@H]1C[C@H](O)C=C2C=C[C@H](C)[C@H](CC[C@@H](O)C[C@@H](O)CC(=O)O)[C@H]21 [Pravastatin] | 647 | 657 | 619 | 638 | > -5 | > -5 | > -5 | > -5 | > -5 | > -5 | > -5 | > -5 | > -5 | > -5 | > -5 | > -5 | > -5 | > -5 | 667 | 637
10 | CC[C@H](CO)Nc1nc(NCc2ccccc2)c2ncn(C(C)C)c2n1 [R-roscovitine] | 644 | 644 | 608 | 623 | > -5 | > -5 | > -5 | > -5 | > -5 | > -5 | > -5 | > -5 | > -5 | -5 | > -5 | > -5 | > -5 | > -5 | 651 | 633
11 | COc1cc(F)c(F)c(Nc2ccc(I)cc2F)c1NS(=O)(=O)C1(C[C@H](O)CO)CC1 [RDEA-119] | 338 | 317 | 432 | 410 | -7.58 | -6.54 | -5.65 | -6.65 | -6.22 | -7.81 | -6.17 | -5.33 | -5.46 | -5.91 | -7.42 | -6.56 | -6.99 | -8.07 | 602 | 554
12 | CO[C@H]1C[C@@H]2CC[C@@H](C)[C@@](O)(O2)C(=O)C(=O)N2CCCC[C@H]2C(=O)O[C@H]([C@H](C)C[C@@H]2CC[C@@H](O)[C@H](OC)C2)CC(=O)[C@H](C)/C=C(\C)[C@@H](O)[C@@H](OC)C(=O)[C@H](C)C[C@H](C)/C=C/C=C/C=C/1C [Rapamycin] | 434 | 556 | 380 | 419 | -5.79 | > -5 | > -5 | < -8.34 | > -5 | > -5 | -6.28 | < -8.34 | > -5 | -6.06 | -5.04 | -5.1 | > -5 | > -5 | 371 | 568
13 | CN1CCC(CNc2ccc3ncc(-c4cccc(OC(F)(F)F)c4)n3n2)CC1 [SGI-1776] | 564 | 611 | 452 | 562 | -5.55 | -5.46 | -7.51 | -7.6 | -5.53 | -5.47 | -7.53 | -5.36 | -5.4 | -6.4 | -5.34 | -5.68 | -5.52 | -5.49 | 636 | 639
14 | COc1cc(Nc2c(C#N)cnc3cc(OCCCN4CCN(C)CC4)c(OC)cc23)c(Cl)cc1Cl [SKI-606] | 539 | 604 | 452 | 530 | -5.63 | -5.64 | -5.82 | -6.64 | -5.99 | -5.47 | -5.88 | -5.53 | -5.23 | -6.82 | -5.23 | -5.37 | -5.75 | -5.56 | 653 | 662
15 | CC(C)(C)c1cnc(CSc2cnc(NC(=O)C3CCNCC3)s2)o1 [SNS-032] | 430 | 476 | 474 | 396 | -6.94 | -6.56 | -7.06 | -7.26 | > -6 | -6.7 | -6.84 | -6.88 | -6.79 | -6.51 | -6.78 | -6.66 | -7.17 | -7.04 | 460 | 519
16 | CNC(=O)c1cc(Oc2ccc(NC(=O)Nc3ccc(Cl)c(C(F)(F)F)c3)cc2)ccn1 [Sorafenib] | 644 | 674 | 537 | 586 | > -6 | > -6 | -7.81 | -8.9 | > -6 | > -6 | -8.56 | -6.23 | > -6 | -6 | > -6 | > -6 | > -6 | > -6 | 795 | 682
17 | CN[C@@H]1C[C@H]2O[C@@](C)([C@@H]1OC)n1c3ccccc3c3c4c(c5c6ccccc6n2c5c31)C(=O)NC4 [Staurosporine] | 273 | 388 | 291 | 265 | -8.41 | -7.85 | -9.32 | -9.94 | -7.72 | -7.84 | -9.79 | -7.91 | -7.64 | -8.09 | -7.56 | -7.76 | -8.44 | -9.49 | 362 | 368
18 | CCN(CC)CCNC(=O)c1c(C)[nH]c(/C=C2\C(=O)Nc3ccc(F)cc32)c1C [Sunitinib] | 635 | 662 | 493 | 617 | > -6 | > -6 | -7.8 | -8.66 | > -6 | > -6 | -8.14 | > -6 | > -6 | -6.45 | > -6 | > -6 | > -6 | > -6 | 546 | 629
